The values below come from patent US20200157637A1, “TARGETING OF ANAPLASTIC LYMPHOMA KINASE IN SQUAMOUS CELL CARCINOMA” (BOARD OF REGENTS, THE UNIVERSITY OF TEXAS SYSTEM, priority 2017, published 2020).

Assay [1] concerns HSC3 cells. Briefly: Cell viability assay, HSC3. In kind it is cell-based, Human. The settings on record: 500 nM each, 48, 72 and 96 h. Here is the method:
(§1) Cell viability assays. Cytotoxicity was assessed using the Cell Titer 96 Aqueous Non-Radioactive Cell Proliferation Assay (Promega, Madison, Wis.) according to manufacturer's protocol. Absorbance values of test groups were normalized against controls (n=4).

The test system of a further assay is Cal27 cells. The assay is described as follows: Flow cytometry cell cycle analysis (PI staining), Cal27. In kind it is cell-based, Human. The settings on record: 500 nM each, 30 hr. An excerpt:
(§2) Flow cytometry. […] Cells were harvested, fixed in 70% EtoH, treated with RNase A, and stained with propidium iodide (PI).

A further assay concerns HSC3 mouse xenografts. Briefly: OSCC mouse xenograft model (HSC3-derived tumors). In kind it is in vivo. As for the experimental part:
OSCC mouse xenograft models. All studies were approved by the UTHSCSA institutional Animal Care and Use Committee. Six week-old female athymic nude mice (Harlan, Indianapolis, […].) were used in a laminar air-flow cabinet under pathogen-free conditions. Mice were provided with a 12 h light/dark schedule at controlled temperature and humidity with food and water ad libitum. Mice were acclimated for one week prior to study initiation. Mice were injected subcutaneously in the right flank with 3×10^6 HSC3 cells in 0.1 ml of sterile PBS. […] Treatments were repeated every day for a total of 14 days. Mice were monitored daily for tumor growth (using digital calipers), cachexia, and weight loss. Tumor volumes were calculated by the elliptical formula: ½ (Length×Width^2) (Jensen et al., 2008). At experimental conclusion, tumors were fixed and processed for histological analysis. Hematoxylin and eosin (H&E) staining and IHC studies were performed by the UTHSCSA Cancer Therapy and Research Center (CTRC) core pathology laboratory.

In assay [2] the test system is HSC3 cells. Briefly: Cell migration (IncuCyte wound-healing) assay, HSC3. In kind it is cell-based, Human. Conditions: 500 nM each. Here is the method:
(§3) Cell migration assay. Cellular migration was performed using the IncuCyte ZOOM™ live cell image device (Essen Bioscience). After achieving cell confluence in 96-well format, the IncuCyte scratch system was used to generate simultaneous rectangular ‘wounds’ with a defined area in HSC3 and Ca127 cell layers. […] Images of cells moving within the wound area were taken by the automated Incu-Cyte system over intervals of 2 hr (HSC3) or 3 hr (Ca127). Migration was calculated as percent of cell confluence within the wound, starting at 0% confluence (i.e., no cells in the wound area). When the wound was completely filled with migrating cells, this was calculated at 100% confluence.

In assay [3] the test system is Ca127 cells. Briefly: Cell viability assay, Ca127. In kind it is cell-based, Human. The settings on record: 500 nM each, 48, 72 and 96 h. As for the experimental part:
as §1

For assay [4], the system named is HSC3 cells. The assay is described as follows: Flow cytometry cell cycle analysis (PI staining), HSC3. In kind it is cell-based, Human. The settings on record: 500 nM each, 30 hr.
Excerpt: as §2
Background: Flow cytometry measures light scatter and fluorescence of single cells or particles in a stream.

Assay [5] concerns Ca127 cells. Briefly: Cell migration (IncuCyte wound-healing) assay, Ca127. In kind it is cell-based, Human. Conditions: 500 nM each. Here is the method: as §3
The next assay relates to oral cancer patients. Conditions: cited from earlier work.
The test system of assay [6] is EGFR signaling components in HSC3 cells. Briefly: Western blot analysis of EGFR signaling components, HSC3. In kind it is cell-based, Human. The settings on record: 500 nM each, 6 h. From the text:
(§4) Immunoblotting. […] SDS-PAGE separated proteins were transferred to PVDF membrane and the membrane blocked in 5% milk.

For assay [7], the system named is EGFR signaling components in Ca127 cells. Briefly: Western blot analysis of EGFR signaling components, Ca127. In kind it is cell-based, Human. Conditions: 500 nM each, 6 h.
Excerpt: as §4
In general terms: Immunoblotting shows a protein as a band on a membrane.

Molecules are shown by their SMILES. “Also recorded” adds a separate entry of the source.

With `COc1cc2ncnc(Nc3ccc(F)c(Cl)c3)c2cc1OCCCN1CCOCC1` [Gefitinib], in the assay with HSC3 cells [1], the “cell growth (in words)” value was “significant anti-proliferative effects”. Besides, in the assay on Cal27 cells, the G1 is recorded as 90.79 % of cell distribution, the G2 is on record as 4.44 % of cell distribution, the S is 2.59 % of cell distribution and the SubG1 was 2.53 % of cell distribution. Besides, the “tumor volume compared to control” value with HSC3 mouse xenografts (day 6, Gefitinib 100 mg/kg daily, oral gavage) is 57 % of control. In addition, the “cell migration (in words)” value with HSC3 cells [2] was “significant reduction from 2 to 8 h”. For the same compound, in the assay on Ca127 cells [3], the “cell growth (in words)” value was “significant anti-proliferative effects”. In addition, in the assay with HSC3 cells [4], the G1 was 95.60 % of cell distribution, the G2 is recorded as 1.87 % of cell distribution, the S is 0.0 % of cell distribution and the SubG1 is reported as 2.03 % of cell distribution. Also, the “cell migration (in words)” value with Ca127 cells [5] is “significantly reduced at 9 h and remained significantly low for 48 h”.
As to `C#Cc1cccc(Nc2ncnc3cc(OCCOC)c(OCCOC)cc23)c1` [Erlotinib], in the assay on oral cancer patients (oral cancer patients with stage I disease), the response rate is reported as 10-15%. Further, the “response (in words)” value with oral cancer patients (patients with stages II, III, and IV disease) is recorded as “failed to respond entirely”.
Regarding `COc1cc(N2CCC(N3CCN(C)CC3)CC2)ccc1Nc1ncc(Cl)c(Nc2ccccc2S(=O)(=O)C(C)C)n1` [TAE684], in assay [6], the “activation of STAT3 (p-STAT3 to total STAT3) (in words)” value is “induced” and the “phospho-AKT / AKT activation (in words)” value was “significantly reduced”. Also, in the assay with HSC3 cells [1], the “cell growth (in words)” value is on record as “significant anti-proliferative effects”. Further, in the assay on Cal27 cells, the G1 is given as 88.11 % of cell distribution, the G2 was 8.40 % of cell distribution, the S was 2.25 % of cell distribution and the SubG1 was 1.68 % of cell distribution. Further, the “tumor growth (in words)” value in the assay with HSC3 mouse xenografts (daily oral gavage for 14 days, TAE684 10 mg/kg, Gefitinib 100 mg/kg) is listed as “unaffected; also recorded: No change in tumor growth”. This compound had a mean tumor volume with HSC3 mouse xenografts (day 14, daily oral gavage, TAE684 10 mg/kg, Gefitinib 100 mg/kg, vehicle control 431 mm^3) of 381 mm^3. Also, the “cell growth (in words)” value in the assay with Ca127 cells [3] was “significant anti-proliferative effects”. In addition, in [7], the “activation of STAT3 (p-STAT3 to total STAT3) (in words)” value is reported as “slightly induced” and the “phospho-AKT / AKT activation (in words)” value was “significantly decreased”. Also, in the assay on HSC3 cells [4], the G1 is on record as 95.23 % of cell distribution, the G2 is 3.73 % of cell distribution, the S is 0.84 % of cell distribution and the SubG1 is 0.34 % of cell distribution.
